Data set [1] deals with alcohol dehydrogenase from Lactobacillus minor. Description: Spectrum of substrates. The data set is classed as biochemical. The conditions noted are these: 10 mM keto compound as substrate, 0.19 mM NADPH, pH 7.0; activity with ethyl 4-chloro-3-oxo-butanoate set to 100%. How it is done: Furthermore, substrates other than ethyl 4-chloro-3-oxo-butanoate were also used in the enzymic assay mixture. For this purpose, the following assay mixture was used: • 970 μl of triethanolamine buffer (100 mM, pH=7.0, 1 mM MgCl2 containing 10 mM keto compound) • 20 μl of NADPH (0.19 mM in assay mixture) • 10 μl of enzyme (1:100)
The activity determined with ethyl 4-chloro-3-oxo-butanoate was set to 100% and the enzyme activities of the other substrates were related to this value.

Data set [2] concerns L. minor alcohol dehydrogenase. Description: Enzyme stability in organic solvents. Particulars: for Enzyme activity relative to starting value, t = 2 h / Enzyme activity relative to starting value, t = 8 h / Enzyme activity relative to starting value, t = 24 h / Enzyme activity relative to starting value, t = 48 h: room temperature; for action of the solvent on the alcohol dehydrogenase (in words): Table 7. It is filed as biochemical, Lactobacillus minor. As to the method: The stability of the enzyme when contacted with organic solvents was studied by diluting L. minor alcohol dehydrogenase 1:100 in the solvent mixtures listed, followed by incubation at room temperature (for organic solvents not miscible with water, the dilution refers to the aqueous phase). Continuous mixing of both phases was ensured (shaker, 200 rpm). 10 μl of the enzyme solution were then used in the standard assay mixture. Here too, the starting value was set to 100% after dilution in the buffer (triethanolamine buffer 100 mM, pH=7.0, 1 mM MgCl2), with all other values being related to this value.

For data set [3] the following is noted: octanol/water; cited from earlier work.
[4] abbreviates: 10% water-miscible solvent in buffer.
[5] abbreviates: 20% water-miscible solvent in buffer.
The mark [6] stands for this setting: 20% solvent not miscible with water, two phases shaken 200 rpm.

The text below walks through data of patent US8361765B2, “Enzymic method for the enantioselective reduction of keto compounds” (IEP GmbH, priority 2001, dated 2013).

On to `CCCCCCC(C)=O` [2-Octanone], for which the “Activity in % (n = 2)” value in data set [1] is 90.8 ± 1.2%.

Take `C[S+](C)[O-]` [DMSO, dimethyl sulfoxide]: in data set [2] (setting [4]), the “Enzyme activity relative to starting value, t = 2 h” value stood at 73%; the “Enzyme activity relative to starting value, t = 8 h” value came out at 54%; the “Enzyme activity relative to starting value, t = 24 h” value came to 60%; the “Enzyme activity relative to starting value, t = 48 h” value was found to be 40%. For the same molecule, in data set [2] (setting [5]), the “Enzyme activity relative to starting value, t = 2 h” value came to 73%; the “Enzyme activity relative to starting value, t = 8 h” value worked out at 54%; the “Enzyme activity relative to starting value, t = 24 h” value worked out at 57%; the “Enzyme activity relative to starting value, t = 48 h” value came out at 40%. For the same molecule, the “action of the solvent on the alcohol dehydrogenase (in words)” value (shortened to “action of the solvent”) in data set [2] is on record as “activating and, respectively, stabilizing action”.

On to `CCOC(=O)C(=O)CCc1ccccc1` [Ethyl 2-oxo-4-phenylbutyrate], for which the “Activity in % (n = 2)” value in data set [1] is on record as 62.7 ± 4.8%.

As to `CCOC(=O)CC(=O)CCl` [Ethyl 4-chloro-3-oxo-butanoate], in data set [1], the “Activity in % (n = 2)” value is 100%.

`CCOC(=O)C(C)=O` [Ethyl pyruvate]: in data set [1], the “Activity in % (n = 2)” value is reported as 192.3 ± 11.5%.

As for `COC(=O)CC(C)=O` [Methyl acetoacetate], the “Activity in % (n = 2)” value in data set [1] was determined as 120 ± 7.7%.

Turning to `CCOCC` [diethyl ether], in data set [3], the logP was 0.85. Further, in data set [2] (setting [6]), the “Enzyme activity relative to starting value, t = 2 h” value was found to be 53%; the “Enzyme activity relative to starting value, t = 8 h” value was found to be 42%; the “Enzyme activity relative to starting value, t = 24 h” value is given as 37%; the “Enzyme activity relative to starting value, t = 48 h” value is 23%.

Turning to `CC(C)OC(C)C` [diisopropyl ether], the logP in data set [3] is reported as 1.55. In data set [2] (setting [6]), the “Enzyme activity relative to starting value, t = 2 h” value came out at 100%; the “Enzyme activity relative to starting value, t = 8 h” value came to 57%; the “Enzyme activity relative to starting value, t = 24 h” value stood at 41%; the “Enzyme activity relative to starting value, t = 48 h” value worked out at 29%.

Turning to `CCOC(C)=O` [ethyl acetate], in data set [2] (setting [6]), the “Enzyme activity relative to starting value, t = 2 h” value is on record as 87%; the “Enzyme activity relative to starting value, t = 8 h” value amounted to 50%; the “Enzyme activity relative to starting value, t = 24 h” value is recorded as 10%; the “Enzyme activity relative to starting value, t = 48 h” value came to 8%.

On to `OCC(O)CO` [glycerol], for which the logP in data set [3] was −3. Also, in data set [2] (setting [4]), the “Enzyme activity relative to starting value, t = 2 h” value is listed as 120%; the “Enzyme activity relative to starting value, t = 8 h” value is recorded as 64%; the “Enzyme activity relative to starting value, t = 24 h” value was 62%; the “Enzyme activity relative to starting value, t = 48 h” value is 28%. Further, in data set [2] (setting [5]), the “Enzyme activity relative to starting value, t = 2 h” value amounted to 120%; the “Enzyme activity relative to starting value, t = 8 h” value came to 100%; the “Enzyme activity relative to starting value, t = 24 h” value amounted to 100%; the “Enzyme activity relative to starting value, t = 48 h” value was 104%. The “action of the solvent” value in data set [2] is “activating and, respectively, stabilizing action”.

As for `CCCCCCC` [heptane], the lipophilicity (logP) in data set [3] is recorded as 4. For the same molecule, in data set [2] (setting [6]), the “Enzyme activity relative to starting value, t = 2 h” value stood at 51%; the “Enzyme activity relative to starting value, t = 8 h” value stood at 49%; the “Enzyme activity relative to starting value, t = 24 h” value was 7%; the “Enzyme activity relative to starting value, t = 48 h” value came out at 6%. Further, the “action of the solvent” value in data set [2] is “do not exhibit this stabilizing action”.

With `CCCCCC` [hexane], in data set [2] (setting [6]), the “Enzyme activity relative to starting value, t = 2 h” value turned out to be 80%; the “Enzyme activity relative to starting value, t = 8 h” value stood at 39%; the “Enzyme activity relative to starting value, t = 24 h” value is 2%; the “Enzyme activity relative to starting value, t = 48 h” value is given as 5%. Also, the “action of the solvent” value in data set [2] is recorded as “do not exhibit this stabilizing action”.

In the case of `CC(C)O` [isopropanol], in data set [2], the “action of the solvent” value is recorded as “inactivating action”.

`CCCCCCCC` [octane]: in data set [2] (setting [6]), the “Enzyme activity relative to starting value, t = 2 h” value stood at 87%; the “Enzyme activity relative to starting value, t = 8 h” value was 47%; the “Enzyme activity relative to starting value, t = 24 h” value was determined as 2%; the “Enzyme activity relative to starting value, t = 48 h” value was determined as 1%. For the same molecule, the “action of the solvent” value in data set [2] is listed as “do not exhibit this stabilizing action”.

In the case of `CCCCC` [pentane], the logP in data set [3] was 3. Besides, in data set [2] (setting [6]), the “Enzyme activity relative to starting value, t = 2 h” value came out at 74%; the “Enzyme activity relative to starting value, t = 8 h” value stood at 55%; the “Enzyme activity relative to starting value, t = 24 h” value was found to be 7%; the “Enzyme activity relative to starting value, t = 48 h” value was found to be 6%. Moreover, the “action of the solvent” value in data set [2] is recorded as “do not exhibit this stabilizing action”.

For the molecule `OC[C@@H](O)[C@@H](O)[C@H](O)[C@@H](O)CO` [sorbitol], in data set [2] (1M in buffer), the “Enzyme activity relative to starting value, t = 2 h” value is listed as 93%; the “Enzyme activity relative to starting value, t = 8 h” value is recorded as 74%; the “Enzyme activity relative to starting value, t = 24 h” value is 60%; the “Enzyme activity relative to starting value, t = 48 h” value amounted to 6%. For the same molecule, the “action of the solvent” value in data set [2] is recorded as “activating and, respectively, stabilizing action”.

As for `COC(C)(C)C` [tert-butyl methyl ether], the logP in data set [3] is 1.21. In addition, in data set [2] (setting [6]), the “Enzyme activity relative to starting value, t = 2 h” value worked out at 67%; the “Enzyme activity relative to starting value, t = 8 h” value is 51%; the “Enzyme activity relative to starting value, t = 24 h” value is 38%; the “Enzyme activity relative to starting value, t = 48 h” value came out at 24%.

As a reminder, the logP is a log measure of how a compound divides between an organic and an aqueous phase.
